Results reported in patent publication US20160101148A1, “TREATMENT AND PREVENTION OF BACTERIAL SKIN INFECTIONS USING ORITAVANCIN” (priority 2013, published 2016).
Values after ≈ are worked out from the molar mass of the structure shown. Where two headings read alike, the source gives them in different places. Values belong to the compound of their own block, whether it stands above or below them.

What was measured:
[1] = tested on: S. aureus strains (14 mecC MRSA, 2 mecA MRSA, ATCC 29213 MSSA); test: Broth microdilution MIC determination; assay type: cell-based, Staphylococcus aureus; conditions: Staphylococcus aureus; for MIC: read-out: MIC; for MIC90: mecC strains, read-out: MIC90
Description: The S. aureus (SA) strains used in this study were: ATCC 43300 (mecA methicillin-resistant SA [MRSA]); ATCC 33591 (mecA MRSA), ATCC 29213 (methicillin-susceptible SA; quality control strain) and 14 mecC MRSA obtained from the Staten Serum Institute (Copenhagen, Denmark).
Tests with oritavancin included polysorbate-80 (final test concentration of 0.002%) as described (CLSI 2012a; Arhin et al., 2008). Tests with daptomycin included CaCl2 at a concentration of 50 mg/L. MICs were read after 24 h incubation.

[2] = tested on: S. aureus strains (14 mecC MRSA, 2 mecA MRSA, ATCC 29213 MSSA); test: In vitro time-kill assays at free peak and free trough concentrations; assay type: cell-based, Staphylococcus aureus; conditions: for Time to cidality (≧3 log decrease): daptomycin ƒCmax 4 mg/L; for Change in cell density at 24 h relative to starting inoculum: daptomycin ƒCmin 0.5 mg/L
Description: Viable cell count was determined by serial dilution plating, including the use of 25 g/L charcoal suspension to limit antibiotic carryover. […] Time-kill assays were repeated at least twice independently; results presented are from a representative experiment.
Doubling dilution concentrations of comparator agents were likewise chosen to approximate their fCmax and fCmin levels in plasma when administered at approved dosages for complicated skin and skin structure infections, using pharmacokinetic data and protein binding values from their respective package inserts (DAP [Cubicin®]; LZD [Zyvox®]; VAN [Vancocin®]; Table 3).

[3] = ATCC 29213 / ATCC 33591 / MRSA / MSSA, ATCC 33591 MRSA (mecA)
[4] = ATCC 29213 / ATCC 43300 / MRSA / MSSA, ATCC 43300 MRSA (mecA)

MIC ([1]; 57147 MRSA (mecC)): 0.5 µg/mL (≈ 0.309 µM)
MIC ([1]; 70611 MRSA (mecC)): 0.5 µg/mL (≈ 0.309 µM)
MIC ([1]; 73348 MRSA (mecC)): 0.5 µg/mL (≈ 0.309 µM)
MIC ([1]; 73415 MRSA (mecC)): 1 µg/mL (≈ 0.617 µM)
MIC ([1]; 73617 MRSA (mecC)): 1 µg/mL (≈ 0.617 µM)
MIC ([1]; 73829 MRSA (mecC)): 0.5 µg/mL (≈ 0.309 µM)
MIC ([1]; 75814 MRSA (mecC)): 0.5 µg/mL (≈ 0.309 µM)
MIC ([1]; 76918 MRSA (mecC)): 0.5 µg/mL (≈ 0.309 µM)
MIC ([1]; 77431 MRSA (mecC)): 1 µg/mL (≈ 0.617 µM)
MIC ([1]; 77601 MRSA (mecC)): 0.5 µg/mL (≈ 0.309 µM)
MIC ([1]; 77950 MRSA (mecC)): 0.5 µg/mL (≈ 0.309 µM)
MIC ([1]; 77964 MRSA (mecC)): 0.5 µg/mL (≈ 0.309 µM)
MIC ([1]; 78085 MRSA (mecC)): 1 µg/mL (≈ 0.617 µM)
MIC ([1]; 78651 MRSA (mecC)): 0.5 µg/mL (≈ 0.309 µM)
MIC ([1]; ATCC 29213 (MSSA)): 0.5 µg/mL (≈ 0.309 µM)
MIC [1, 3]: 1 µg/mL (≈ 0.617 µM)
MIC [1, 4]: 0.5 µg/mL (≈ 0.309 µM)
MIC ([1]; all strains tested): 0.5 to 1 µg/mL (≈ 0.309 to 0.617 µM)
MIC90 [1]: 1 µg/mL (≈ 0.617 µM)
Structure (SMILES): CCCCCCCCCC(=O)N[C@@H](Cc1c[nH]c2ccccc12)C(=O)N[C@H](CC(N)=O)C(=O)N[C@@H](CC(=O)O)C(=O)N[C@@H]1C(=O)NCC(=O)N[C@@H](CCCN)C(=O)N[C@@H](CC(=O)O)C(=O)N[C@H](C)C(=O)N[C@@H](CC(=O)O)C(=O)NCC(=O)N[C@H](CO)C(=O)N[C@@H]([C@H](C)CC(=O)O)C(=O)N[C@@H](CC(=O)c2ccccc2N)C(=O)O[C@@H]1C [Daptomycin, daptomycin]
Time to cidality (≧3 log decrease) ([2]; 57147 (mecC)): 1-2 h
Change in cell density at 24 h relative to starting inoculum ([2]; 57147 (mecC)): +2.7 log CFU/mL
Time to cidality (≧3 log decrease) ([2]; 70611 (mecC)): 1-2 h
Change in cell density at 24 h relative to starting inoculum ([2]; 70611 (mecC)): +1.5 log CFU/mL
Change in cell density at 24 h relative to starting inoculum ([2]; 73348 (mecC)): +2.6 log CFU/mL
Time to cidality (≧3 log decrease) ([2]; 73415 (mecC)): 2-4 h
Change in cell density at 24 h relative to starting inoculum ([2]; 73415 (mecC)): +1.5 log CFU/mL
Time to cidality (≧3 log decrease) ([2]; 73617 (mecC)): 1-2 h
Change in cell density at 24 h relative to starting inoculum ([2]; 73617 (mecC)): +3.4 log CFU/mL
Time to cidality (≧3 log decrease) ([2]; 73829 (mecC)): 1-2 h
Change in cell density at 24 h relative to starting inoculum ([2]; 73829 (mecC)): +2.1 log CFU/mL
Time to cidality (≧3 log decrease) ([2]; 75814 (mecC)): 1-2 h
Change in cell density at 24 h relative to starting inoculum ([2]; 75814 (mecC)): +3.6 log CFU/mL
Time to cidality (≧3 log decrease) ([2]; 76918 (mecC)): 1-2 h
Change in cell density at 24 h relative to starting inoculum ([2]; 76918 (mecC)): +1.5 log CFU/mL
Time to cidality (≧3 log decrease) ([2]; 77431 (mecC)): 1-2 h
Change in cell density at 24 h relative to starting inoculum ([2]; 77431 (mecC)): +1.9 log CFU/mL
Change in cell density at 24 h relative to starting inoculum ([2]; 77601 (mecC)): +0.1 log CFU/mL
Time to cidality (≧3 log decrease) ([2]; 77950 (mecC)): 1-2 h
Change in cell density at 24 h relative to starting inoculum ([2]; 77950 (mecC)): +0.9 log CFU/mL
Time to cidality (≧3 log decrease) ([2]; 77964 (mecC)): 1-2 h
Change in cell density at 24 h relative to starting inoculum ([2]; 77964 (mecC)): +1.2 log CFU/mL
Time to cidality (≧3 log decrease) ([2]; 78085 (mecC)): 2-4 h
Change in cell density at 24 h relative to starting inoculum ([2]; 78085 (mecC)): +1.5 log CFU/mL
Change in cell density at 24 h relative to starting inoculum ([2]; 78651 (mecC)): +1.6 log CFU/mL
Time to cidality (≧3 log decrease) ([2]; ATCC 29213 (MSSA)): 2-4 h
Change in cell density at 24 h relative to starting inoculum ([2]; ATCC 29213 (MSSA)): +3.9 log CFU/mL
Change in cell density at 24 h relative to starting inoculum ([2]; ATCC 33591 (mecA)): +3.8 log CFU/mL
Time to cidality (≧3 log decrease) ([2]; ATCC 43300 (mecA)): 1-2 h
Change in cell density at 24 h relative to starting inoculum ([2]; ATCC 43300 (mecA)): +3.6 log CFU/mL
Activity in time-kill assay ([2]; S. aureus strains, fCmin): little to no effect or was bacteriostatic

MIC ([1]; 57147 MRSA (mecC)): 2 µg/mL (≈ 5.93 µM)
MIC ([1]; 70611 MRSA (mecC)): 2 µg/mL (≈ 5.93 µM)
MIC ([1]; 73348 MRSA (mecC)): 2 µg/mL (≈ 5.93 µM)
MIC ([1]; 73415 MRSA (mecC)): 2 µg/mL (≈ 5.93 µM)
MIC ([1]; 73617 MRSA (mecC)): 2 µg/mL (≈ 5.93 µM)
MIC ([1]; 73829 MRSA (mecC)): 2 µg/mL (≈ 5.93 µM)
MIC ([1]; 75814 MRSA (mecC)): 2 µg/mL (≈ 5.93 µM)
MIC ([1]; 76918 MRSA (mecC)): 2 µg/mL (≈ 5.93 µM)
MIC ([1]; 77431 MRSA (mecC)): 2 µg/mL (≈ 5.93 µM)
MIC ([1]; 77601 MRSA (mecC)): 2 µg/mL (≈ 5.93 µM)
MIC ([1]; 77950 MRSA (mecC)): 2 µg/mL (≈ 5.93 µM)
MIC ([1]; 77964 MRSA (mecC)): 2 µg/mL (≈ 5.93 µM)
MIC ([1]; 78085 MRSA (mecC)): 2 µg/mL (≈ 5.93 µM)
MIC ([1]; 78651 MRSA (mecC)): 2 µg/mL (≈ 5.93 µM)
MIC ([1]; ATCC 29213 (MSSA)): 2 µg/mL (≈ 5.93 µM)
MIC [1, 3]: 2 µg/mL (≈ 5.93 µM)
MIC [1, 4]: 1 µg/mL (≈ 2.96 µM)
MIC ([1]; all strains tested): 1 to 2 µg/mL (≈ 2.96 to 5.93 µM)
MIC90 [1]: 2 µg/mL (≈ 5.93 µM)
Structure (SMILES): CC(=O)NC[C@H]1CN(c2ccc(N3CCOCC3)c(F)c2)C(=O)O1 [Linezolid, linezolid]
Activity in time-kill assay ([2]; all tested strains, both fCmin and fCmax): little to no effect or was bacteriostatic
